Biological target: T1, CXCR3 (Homo sapiens, UniProt P49682)
T1 construct: expressed in transfected cells
T1 sequence (P49682 1-368): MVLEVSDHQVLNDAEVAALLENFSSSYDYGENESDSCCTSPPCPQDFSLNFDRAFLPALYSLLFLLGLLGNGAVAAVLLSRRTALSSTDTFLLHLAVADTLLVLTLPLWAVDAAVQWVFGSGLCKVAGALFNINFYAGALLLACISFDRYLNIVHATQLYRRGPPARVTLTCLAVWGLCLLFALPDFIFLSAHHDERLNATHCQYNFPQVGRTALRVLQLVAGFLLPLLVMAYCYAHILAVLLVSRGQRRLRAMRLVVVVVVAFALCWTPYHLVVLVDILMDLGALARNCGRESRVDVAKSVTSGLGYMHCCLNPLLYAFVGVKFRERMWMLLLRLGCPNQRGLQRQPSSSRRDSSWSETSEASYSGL
Experiment: CXCR3/IP-10 radioligand binding (125I-IP-10 competition, CXCR3.L1/2 cell membranes)
Details: Table 5; test compound 10 μmol/L; 125I-labeled IP-10 binding to CXCR3.L1/2 transfectant cell membrane
Excerpt: The activity of the compounds of the present invention can be assessed using a suitable assay, such as a receptor binding assay, a chemotaxis assays, an extracellular acidification assay or a calcium flux assay (see, for example, Hesselgesser et al., J. Biol. Chem. 273(25):15687-15692 (1998) and WO 98/02151). For example, as described herein, small organic molecule antagonists of CXCR3/IP-10 binding have been identified utilizing cells engineered to express recombinant human CXCR3 (CXCR3.L1/2) and which bind ^125I-IP-10 and chemotax in response to IP-10, Mig or I-TAC. Specifically, a high through-put receptor binding assay, which monitors ^125I-IP-10 binding to CXCR3.L1/2 cell membranes, was used to identify small molecule antagonists which block binding of IP-10, Mig or I-TAC to CXCR3.
CXCR3.L1/2 cells were pelleted by centrifugation and stored at −80° C. The cells were lysed by thawing and resuspending at about 1.5×10^7 cells/ml in a hypotonic buffer (5 m mol/L HEPES (pH 7.2), 2 mmol/L EDTA, 10 μg/ml each leupeptin, aprotinin, and chymostatin, and 100 μg/ml PMSF (all from Sigma, St. Louis)). Nuclei and cellular debris was removed by centrifugation ([…], at 4° C.) for 10 min. The supematant was transferred to chilled centrifuge tubes (Nalge, Rochester, N.Y.) and the membrane fraction was recovered by centrifugation (25,000 g at 4° C.) for 45 min. The membrane pellet was resuspended in freezing buffer (10 mM HEPES (pH 7.2), 300 mmol/L Sucrose, 5 μg/ml each of leupeptin, aprotinin, and chymostatin, and 10 μg/ml PMSF). The total protein concentration was determined using a coomassie blue staining protein concentration assay kit (BioRad). The membrane preparation was aliquoted and stored at −80° C. until time of use.
CXCR3/IP-10 binding was performed in 96-well polypropylene plates (Costar) in a final volume of 0.1 ml of HBB buffer (50 mmol/L Hepes pH 7.4, 1 mmol/L CaCl2, 5 mmol/L MgCl2, 0.02% sodium azide, 0.5% BSA (bovine serum albumin)) containing 1 to 5 μg of CXCR3.L1/2 transfectant cell membrane protein and 0.05 to 0.2 nmol/L ^125I-labeled IP-10 (NEN, Boston, Mass.). Competition binding experiments were performed by including variable concentrations of unlabeled IP-10 or test compound. Nonspecific binding was determined following the addition of a 250 nmol/L unlabelled IP-10. Samples were incubated for 60 min at room temperature, and bound and free tracer (^125I-IP10) were separated by filtration through 96-well GF/B filterplates (Packard) presoaked in 0.3% polyethyleneimine. The filters were washed in HBB further supplemented with 0.5 mol/L NaCl, dried, and the amount of bound radioactivity determined by liquid scintillation counting. The competition is presented as the percent specific binding as calculated by 100×[(S-B)/(T-B)], where S is the radioactivity bound for each sample, B is background binding, and T is total bound in the absence of competitors. Duplicates were used throughout the experiments.

| Compound | % inhibition at 10 μmol/L [%] | inhibition at 10 µM [%] |
| --- | --- | --- |
| CC(=O)N(CCN1CCN(Cc2cccc3ccccc23)C1=C(C#N)C#N)Cc1cccc(CN2CCCCC2)c1 [Compound 12, 1-[2-{N-Acetyl-N-(3-piperidinomethylbenzyl)amino}ethyl]-3-(1-naphthylmethyl)-2-imidazolidinylidenepropanedinitrile] | 76 | – |
| CCN(CCN1CCN(Cc2cccc3ccccc23)C1=C(C#N)C#N)Cc1cccc(CN2CCCCC2)c1 [Compound 17, 1-[2-{N-Ethyl-N-(3-piperidinomethylbenzyl)amino}ethyl]-3-(1-naphthylmethyl)-2-imidazolidinylidenepropanedinitrile] | – | 96 |
| N#CC(C#N)=C1N(CCN(Cc2cccc(CN3CCCCC3)c2)C(=O)c2ccco2)CCN1Cc1cccc2ccccc12 [Compound 14, 1-[2-{N-Furoyl-N-(3-piperidinomethylbenzyl)amino}ethyl]-3-(1-naphthylmethyl)-2-imidazolidinylidenepropanedinitrile] | 85 | – |
| N#CC(C#N)=C1N(CCN(Cc2cccc(CN3CCCCC3)c2)Cc2cccc(CN3CCCCC3)c2)CCN1Cc1cccc2ccccc12 [Compound 19, 1-[2-{N,N-Bis(3-piperidinomethylbenzyl)amino}ethyl]-3-(1-naphthylmethyl)-2-imidazolidinylidenepropanedinitrile] | 68 | – |
| CCN(CCN1CCN(Cc2cccc3ccccc23)C1=C(C#N)C#N)Cc1ccc(OCCN2CCCC2)cc1 [Compound 4, 1-[2-{N-Ethyl-N-{4-(2-(1-pyrrolidinyl)ethoxy)benzyl}amino}ethyl]-3-(1-naphthylmethyl)-2-imidazolidinylidenepropanedinitrile] | 76 | – |
| N#CC(C#N)=C1N(CCN(Cc2cccc(CN3CCCCC3)c2)C(=O)c2cccs2)CCN1Cc1cccc2ccccc12 [Compound 15, 1-[2-{N-(2-Thiophenecarbonyl)-N-(3-piperidinomethylbenzyl)amino}ethyl]-3-(1-naphthylmethyl)-2-imidazolidinylidenepropanedinitrile] | 71 | – |
| CCCNCc1ccc(CN(CC)CCN2CCN(Cc3cccc4ccccc34)C2=C(C#N)C#N)cc1 [Compound 10, 1-[2-{N-Ethyl-N-(4-(N-propylamino)methylbenzyl)amino}ethyl]-3-(1-naphthylmethyl)-2-imidazolidinylidenepropanedinitrile] | 100 | – |
| CCN(CCN1CCN(Cc2cccc3ccccc23)C1=C(C#N)C#N)Cc1ccc(CN2CCN(CCO)CC2)cc1 [Compound 11, 1-[2-{N-Ethyl-(4-(4-(2-hydroxyethyl)piperazinyl)methylbenzyl)amino}ethyl]-3-(1-naphthylmethyl)-2-imidazolidinylidenepropanedinitrile] | 91 | – |
| 1-[2-{N-Ethyl-N-(4-N,N-dimethylaminomethylbenzyl)amino}ethyl]-3-(1-naphthylmethyl)-2-imidazolidinylidenepropanedinitrile [Compound 9] | 94 | – |
| CS(=O)(=O)N(CCN1CCN(Cc2cccc3ccccc23)C1=C(C#N)C#N)Cc1cccc(CN2CCCCC2)c1 [Compound 16, 1-[2-{N-Methanesulfonyl-N-(3-piperidinomethylbenzyl)amino}ethyl]-3-(1-naphthylmethyl)-2-imidazolidinylidenepropanedinitrile] | 89 | – |
| CN(CCN1CCN(Cc2cccc3ccccc23)C1=C(C#N)C#N)Cc1ccc(CN2CCCCC2)cc1 [Compound 5, 1-[2-{N-Methyl-N-(4-piperidinomethylbenzyl)amino}ethyl]-3-(1-naphthylmethyl)-2-imidazolidinylidenepropanedinitrile] | 99 | – |
| CCN(CCN1CCN(Cc2cccc3ccccc23)C1=C(C#N)C#N)Cc1ccc(CN2CCOCC2)cc1 [Compound 7, 1-[2-{N-Ethyl-N-(4-morpholinomethylbenzyl)amino}ethyl]-3-(1-naphthylmethyl)-2-imidazolidinylidenepropanedinitrile] | 92 | – |
| CCCNCc1ccc(CN(CC)CCN2CCN(Cc3cc(C)cc(C)c3)C2=C(C#N)C#N)cc1 [Compound 21, 1-[2-{N-Ethyl-N-(4-(1-propylaminomethyl)benzyl)amino}ethyl]-3-(3,5-dimethylbenzyl)-2-imidazolidinylidenepropanedinitrile] | – | 99 |
| CN(CCN1CCN(Cc2cccc3ccccc23)C1=C(C#N)C#N)Cc1cccc(CN2CCCCC2)c1 [Compound 6, 1-[2-{N-Methyl-N-(3-piperidinomethylbenzyl)amino}ethyl]-3-(1-naphthylmethyl)-2-imidazolidinylidenepropanedinitrile] | 99 | – |
| N#CC(C#N)=C1N(CCN(Cc2cccc(CN3CCCCC3)c2)C(=O)c2ccccc2)CCN1Cc1cccc2ccccc12 [Compound 13, 1-[2-{N-Benzoyl-N-(3-piperidinomethylbenzyl)amino}ethyl]-3-(1-naphthylmethyl)-2-imidazolidinylidenepropanedinitrile] | 61 | – |

Same assay, conditions: Table 6; test compound 10 μmol/L; 125I-labeled IP-10 binding to CXCR3.L1/2 transfectant cell membrane

| Compound | inhibition at 10 µM [%] |
| --- | --- |
| CCN(CCN1CCN(Cc2cc(C)cc(C)c2)C1=C(C#N)C#N)C(=O)c1ccc(CN2CCCCC2)cc1 [Compound 26, 1-[2-{N-Ethyl-N-(4-(1-piperidinomethyl)benzoyl)amino}ethyl]-3-(3,5-dimethylbenzyl)-2-imidazolidinylidenepropanedinitrile] | 64 |
| CCN(CCN1CCN(Cc2cc(Cl)cc(Cl)c2)C1=C(C#N)C#N)C(=O)c1ccc(CN2CCCCC2)cc1 [Compound 28, 1-[2-{N-Ethyl-N-(4-(1-piperidinomethyl)benzoyl)amino}ethyl]-3-(3,5-dichlorobenzyl)-2-imidazolidinylidenepropanedinitrile] | 41 |
| CCN(CCN1CCN(C(=O)c2cc(C)cc(C)c2)C1=C(C#N)C#N)Cc1ccc(CN2CCCCC2)cc1 [Compound 25, 1-[2-{N-Ethyl-N-(4-(1-piperidinomethyl)benzyl)amino}ethyl]-3-(3,5-dimethylbenzoyl)-2-imidazolidinylidenepropanedinitrile] | 99 |
| CCN(CCN1CCN(Cc2cc(C)cc(C)c2)C1=C(C#N)C#N)Cc1ccc(CN2CCCCC2)cc1 [Compound 23, 1-[2-{N-Ethyl-N-(4-(1-piperidinomethyl)benzyl)amino}ethyl]-3-(3,5-dimethylbenzyl)-2-imidazolidinylidenepropanedinitrile] | 97 |
| CCCNCc1ccc(C(=O)N(CC)CCN2CCN(Cc3cc(C)cc(C)c3)C2=C(C#N)C#N)cc1 [Compound 29, 1-[2-{N-Ethyl-N-(4-(-1-propylaminomethyl)benzoyl)amino}ethyl]-3-(3,5-dimethylbenzyl)-2-imidazolidinylidenepropanedinitrile] | 51 |
| CCCNCc1ccc(CNCCN2CCN(Cc3cc(C)cc(C)c3)C2=C(C#N)C#N)cc1 [Compound 22, 1-[2-{N-(4-(1-Propylaminomethyl)benzyl)amino}ethyl]-3-(3,5-dimethylbenzyl)-2-imidazolidinylidenepropanedinitrile] | 92 |
| CCN(CCN1CCN(Cc2cc(Cl)cc(Cl)c2)C1=C(C#N)C#N)Cc1ccc(CN2CCCCC2)cc1 [Compound 24, 1-[2-{N-Ethyl-N-(4-(1-piperidinomethyl)benzyl)amino}ethyl]-3-(3,5-dichlorobenzyl)-2-imidazolidinylidenepropanedinitrile] | 91 |
